Activity calls are given as the source filed them. The calls are words filed in the database; no cut-off is given here.
Assays:
[1] = target: T1, Acetylcholinesterase (Homo sapiens, UniProt P22303); assay: Inhibition of human erythrocytes AChE using acetylthiocholine iodide as substrate preincubated for 10 mins followed by substrate addition by Ellman's method; format: tissue-based, Erythrocyte
[2] = target: Cholinesterase (Homo sapiens, UniProt P06276); assay: Inhibition of human serum BChE using butyrylthiocholine iodide as substrate preincubated for 10 mins followed by substrate addition by Ellman's method; format: cell-free
Cholinesterase, sequence (P06276 whole entry): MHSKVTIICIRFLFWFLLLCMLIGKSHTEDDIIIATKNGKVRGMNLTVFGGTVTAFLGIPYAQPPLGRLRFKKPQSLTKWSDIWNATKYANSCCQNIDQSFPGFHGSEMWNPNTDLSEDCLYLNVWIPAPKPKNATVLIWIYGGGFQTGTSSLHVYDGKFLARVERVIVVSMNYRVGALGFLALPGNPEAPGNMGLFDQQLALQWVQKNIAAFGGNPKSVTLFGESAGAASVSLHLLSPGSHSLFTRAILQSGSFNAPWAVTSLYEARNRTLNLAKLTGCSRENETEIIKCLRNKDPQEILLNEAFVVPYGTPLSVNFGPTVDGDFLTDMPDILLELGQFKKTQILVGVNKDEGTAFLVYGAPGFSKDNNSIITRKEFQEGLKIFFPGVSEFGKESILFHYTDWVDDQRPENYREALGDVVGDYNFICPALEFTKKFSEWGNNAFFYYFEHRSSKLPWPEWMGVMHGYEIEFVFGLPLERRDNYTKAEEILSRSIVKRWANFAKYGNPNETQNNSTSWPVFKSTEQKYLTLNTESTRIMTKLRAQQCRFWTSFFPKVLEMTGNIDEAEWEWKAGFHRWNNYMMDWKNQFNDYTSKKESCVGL

[3] = target: Beta-secretase 1 (Homo sapiens, UniProt P56817); assay: Inhibition of human BACE-1 using MOCA-SEV-NL-DAEFR-DNP-RR as substrate preincubated with substrate followed by enzyme addition by FRET assay
Beta-secretase 1, sequence (P56817 whole entry): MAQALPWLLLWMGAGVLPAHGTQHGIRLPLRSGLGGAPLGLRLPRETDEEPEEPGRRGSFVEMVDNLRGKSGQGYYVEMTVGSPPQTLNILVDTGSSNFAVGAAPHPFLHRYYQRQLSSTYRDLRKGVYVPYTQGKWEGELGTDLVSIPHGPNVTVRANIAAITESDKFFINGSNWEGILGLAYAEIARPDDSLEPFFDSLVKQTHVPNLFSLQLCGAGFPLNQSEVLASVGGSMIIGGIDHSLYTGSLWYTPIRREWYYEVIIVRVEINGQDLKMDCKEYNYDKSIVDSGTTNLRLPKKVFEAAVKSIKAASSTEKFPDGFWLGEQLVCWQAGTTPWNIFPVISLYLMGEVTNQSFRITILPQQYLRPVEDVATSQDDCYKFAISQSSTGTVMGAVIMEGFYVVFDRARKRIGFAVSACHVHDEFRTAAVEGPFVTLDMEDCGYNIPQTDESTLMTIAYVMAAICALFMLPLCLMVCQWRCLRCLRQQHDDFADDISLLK

[4] = Permeability of the compound in PBS/EtOH buffer (7:3) at 25 ug/ml after 18 hrs by PAMPA-BBB assay
[5] = target: T1, Acetylcholinesterase; settings: dose microM 5-20, time 48.0 hrs
[6] = test system: Rattus norvegicus; assay: Cognitive enhancing effect in scopolamine-induced Wistar rat model of amnesia assessed as increase in spontaneous alteration at 10 mg/kg, po pretreated for 7 days followed by scopolamine challenge and measured after 30 mins by Y-maze test; format: functional, organism-based; settings: time 7.0 day
[7] = Acute toxicity in Wistar rat assessed as abnormal signs at 100 to 500 mg/kg, po measured up to 14 days by OCED guideline method; format: organism-based; settings: in vivo, 336 h, dose 100-500 mg/kg, time 14 day
[8] = target: Amyloid-beta precursor protein (Homo sapiens) (UniProt P05067); settings: dose microM 5-20, time 48.0 hrs
Amyloid-beta precursor protein (Homo sapiens), sequence (P05067 whole entry): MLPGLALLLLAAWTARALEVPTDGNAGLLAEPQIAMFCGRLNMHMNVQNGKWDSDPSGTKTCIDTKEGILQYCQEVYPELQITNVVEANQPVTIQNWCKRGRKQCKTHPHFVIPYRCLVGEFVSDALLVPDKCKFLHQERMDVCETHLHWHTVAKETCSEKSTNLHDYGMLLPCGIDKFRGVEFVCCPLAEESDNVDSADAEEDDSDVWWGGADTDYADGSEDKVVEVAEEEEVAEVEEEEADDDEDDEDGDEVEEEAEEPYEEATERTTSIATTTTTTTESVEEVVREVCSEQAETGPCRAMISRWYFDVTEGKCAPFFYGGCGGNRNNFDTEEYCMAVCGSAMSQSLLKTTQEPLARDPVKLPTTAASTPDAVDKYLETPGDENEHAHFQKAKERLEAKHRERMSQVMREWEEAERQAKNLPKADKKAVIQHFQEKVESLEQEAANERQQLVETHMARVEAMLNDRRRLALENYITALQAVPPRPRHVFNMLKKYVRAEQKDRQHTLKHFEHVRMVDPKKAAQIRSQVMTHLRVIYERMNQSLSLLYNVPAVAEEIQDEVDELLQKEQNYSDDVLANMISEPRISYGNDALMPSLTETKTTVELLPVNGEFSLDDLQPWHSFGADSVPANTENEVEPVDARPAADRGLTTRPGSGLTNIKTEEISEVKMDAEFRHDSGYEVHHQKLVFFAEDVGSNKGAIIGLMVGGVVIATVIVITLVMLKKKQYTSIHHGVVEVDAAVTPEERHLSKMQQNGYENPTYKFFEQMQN

[9] = test system: SH-SY5Y; assay: Neuroprotective activity against amyloid beta (1 to 42)-induced oxidative stress in human SH-SY5Y cells assessed as effect on cell viability at 10 to 80 uM measured after 24 hrs by MTT assay (reference value: 61 %); format: functional; settings: dose microM 10-80
[10] = test system: Rattus norvegicus; assay: Cognitive enhancing effect in po dosed scopolamine-induced Wistar rat model of amnesia assessed as increase in spontaneous alteration pretreated for 7 days followed by scopolamine challenge and measured after 30 mins by Y-maze test; format: functional, organism-based; settings: dose mg/kg 2.5-10, time 7.0 day
[11] = Acute toxicity in po dosed Wistar rat assessed as maximum tolerated dose by OCED guideline method; format: organism-based; settings: in vivo
[12] = test system: Rattus norvegicus; assay: (§1) Improvement in learning and spatial memory in icv infused amyloid beta (1 to 42)-induced rat model of Alzheimer's disease assessed as reduction in escape latency at 10 mg/kg, po administered daily for 7 days starting from 7 days post surgery and measured daily for 5 days by Morris water maze test; format: functional, organism-based; settings: time 12.0 day
[13] = target: Amyloid-beta precursor protein (Homo sapiens) (UniProt P05067); assay: Inhibition of amyloid beta (unknown origin) self aggregation assessed as maximum peak height at 10 uM after 10 days by atomic force microscopy; settings: time 10.0 day
[14] = target: T1, Acetylcholinesterase; assay: Mixed type inhibition of human erythrocytes AChE assessed as decrease in Vmax using varying levels of acetylthiocholine iodide substrate by Lineweaver-Burk plot analysis; settings: Erythrocyte
[15] = MRT in Wistar rat at 10 mg/kg, po measured up to 72 hrs by HPLC analysis; format: ADME, organism-based; settings: in vivo
[16] = Cmax in Wistar rat at 10 mg/kg, po measured up to 72 hrs by HPLC analysis; format: ADME, organism-based; set-up: route oral, time 72 hrs, dose 10 mg/kg; settings: in vivo
[17] = test system: Rattus norvegicus; assay: Antioxidant activity in scopolamine-induced Wistar rat model of amnesia assessed as increase in SOD level at 2.5 to 10 mg/kg, po pretreated for 7 days followed by scopolamine challenge and measured after 30 mins […]; format: functional, organism-based; settings: dose mg/kg 2.5-10, time 7.0 day
[18] = AUC (0 to 24 hrs) in Wistar rat at 10 mg/kg, po measured up to 72 hrs by HPLC analysis; format: ADME, organism-based; set-up: route oral, dose 10 mg/kg, time 72 hrs; settings: in vivo
[19] = target: T1, Acetylcholinesterase; assay: Mixed type inhibition of human erythrocytes AChE assessed as increase in Km using varying levels of acetylthiocholine iodide substrate by Lineweaver-Burk plot analysis; format: tissue-based; settings: Erythrocyte
[20] = test system: Rattus norvegicus; assay: Antioxidant activity in scopolamine-induced Wistar rat model of amnesia assessed as decrease in MDA level at 2.5 to 10 mg/kg, po pretreated for 7 days followed by scopolamine challenge and measured after 30 mins […]; format: functional, organism-based; settings: dose mg/kg 2.5-10, time 7.0 day
[21] = test system: Rattus norvegicus; assay: Ex vivo inhibition of AChE in brain of scopolamine-induced Wistar rat model of amnesia at 5 to 10 mg/kg, po pretreated for 7 days followed by scopolamine challenge and measured after 30 mins using acetylthiocholine iodide as substrate by Ellman's method; format: functional, organism-based; settings: dose mg/kg 5-10, time 7.0 day
[22] = target: Amyloid-beta precursor protein (Homo sapiens) (UniProt P05067); assay: Inhibition of amyloid beta (unknown origin) self aggregation assessed as roughness index at 10 uM after 10 days by atomic force microscopy; settings: time 10.0 day
[23] = test system: Rattus norvegicus; assay: as §1, with “increase” for “reduction”, “number of platform crossing” for “escape latency”, “after 6” for “daily for 5”; format: functional, organism-based; settings: time 13.0 day
[24] = target: T1, Acetylcholinesterase; assay: Mixed type inhibition of human erythrocytes AChE using varying levels of acetylthiocholine iodide substrate by Dixon plot analysis; format: tissue-based, Erythrocyte
[25] = test system: Rattus norvegicus; assay: Cognitive enhancing effect in scopolamine-induced Wistar rat model of amnesia assessed as increase in spontaneous alteration at 5 to 10 mg/kg, po pretreated for 7 days followed by scopolamine challenge and measured after 30 mins by Y-maze test; format: functional, organism-based; settings: dose mg/kg 5-10, time 7.0 day
[26] = target: Amyloid-beta precursor protein (Homo sapiens) (UniProt P05067); assay: Inhibition of amyloid beta (1 to […]) (unknown origin) self-induced aggregation after 48 hrs by Thioflavin T based fluorometric assay; settings: dose microM 5-20, time 48.0 hrs
[27] = Tmax in Wistar rat at 10 mg/kg, po measured up to 72 hrs by HPLC analysis; format: ADME, organism-based; settings: in vivo
[28] = Half life in Wistar rat at 10 mg/kg, po measured up to 72 hrs by HPLC analysis; format: ADME, organism-based; settings: in vivo

T1 sequence (P22303 whole entry): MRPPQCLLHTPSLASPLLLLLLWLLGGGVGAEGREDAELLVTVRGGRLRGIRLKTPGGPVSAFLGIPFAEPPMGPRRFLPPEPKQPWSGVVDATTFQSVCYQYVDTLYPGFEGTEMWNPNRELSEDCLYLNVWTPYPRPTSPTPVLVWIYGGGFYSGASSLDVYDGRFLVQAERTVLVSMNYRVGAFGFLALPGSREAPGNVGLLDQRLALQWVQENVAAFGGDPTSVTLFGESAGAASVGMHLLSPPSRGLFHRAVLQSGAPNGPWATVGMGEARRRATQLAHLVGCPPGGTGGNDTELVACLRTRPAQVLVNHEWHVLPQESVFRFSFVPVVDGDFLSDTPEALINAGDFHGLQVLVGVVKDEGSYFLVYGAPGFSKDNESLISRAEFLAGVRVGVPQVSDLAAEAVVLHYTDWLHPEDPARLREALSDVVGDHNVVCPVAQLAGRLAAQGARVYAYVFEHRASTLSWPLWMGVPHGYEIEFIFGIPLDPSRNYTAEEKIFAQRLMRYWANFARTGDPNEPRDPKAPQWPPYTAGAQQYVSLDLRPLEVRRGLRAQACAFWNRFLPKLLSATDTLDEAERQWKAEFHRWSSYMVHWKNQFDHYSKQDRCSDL

In the case of `Clc1ccc(-c2nnc(N3CCN(c4ccccn4)CC3)o2)cc1`, the IC50 [1] is reported as 102 nM, the IC50 [2] is reported as 1820 nM and the IC50 [3] is reported as 1320 nM.

For `O=C(N/N=C/c1ccc(O)cc1)N1CCN(c2ccccn2)CC1`, the IC50 [1] was 4810 nM, the IC50 [2] was 6150 nM and the IC50 [3] was 4680 nM.

`O=[N+]([O-])c1ccc(-c2nnc(N3CCN(c4ccccn4)CC3)o2)cc1` showed an IC50 [1] of 219 nM, an IC50 [2] of 2860 nM and an IC50 [3] of 1340 nM.

In the case of `O=C(N/N=C/c1ccc(C(F)(F)F)cc1)N1CCN(c2ccccn2)CC1`, the IC50 [1] is reported as 1320 nM, the IC50 [2] is reported as 4040 nM and the IC50 [3] is reported as 1820 nM.

For `Brc1ccc(-c2nnc(N3CCN(c4ccccn4)CC3)o2)cc1`, the Papp at 18 h, 25 ug/ml [4] was 5.9 ×10⁻⁶ cm/s, the Flu intensity [5] was 0.6 and the Activity [6] was “Active”. For the same molecule, the Activity [7] was “Non-Toxic”, the IC50 [1] was 74 nM and the Flu intensity [8] was 0.42. The IC50 [2] was 846 nM, the IC50 [3] was 126 nM and the Activity [9] was 63%. The Activity [10] was “Dose-dependent effect” and the MTD [11] was 100 mg/kg.

In the case of `Fc1ccc(-c2nnc(N3CCN(c4ccccn4)CC3)o2)c(F)c1`, the Papp at 18 h, 25 ug/ml [4] is reported as 6.1 ×10⁻⁶ cm/s, the Activity [12] is reported as “Active” and the Activity [13] is reported as 44.2 nm. The inhibition [14] was “Active”, the Flu intensity [5] was 0.33 and the MRT [15] was 18.4 h. For the same molecule, the Cmax [16] was 49.8 ng/mL, the Activity [7] was “Non-Toxic” and the Activity [17] was “Active”. For the same molecule, the AUC(0-t) at 72 h [18] was 721 ng·h/mL, the inhibition [19] was “Active” and the Flu intensity [8] was 0.3. For the same molecule, the Activity [20] was “Active”, the inhibition [21] was “Active” and the Activity [22] was 1.84 nm. The Activity [23] was “Active”, the Ki [24] was 30 nM and the IC50 [2] was 787 nM. For the same molecule, the Activity [25] was “Active”, the inhibition [26] was “Active” and the Tmax [27] was 5.33 h. The Activity [9] was 69%, the Activity [10] was “Dose-dependent effect” and the MTD [11] was 100 mg/kg. For the same molecule, the half-life [28] was 12.3 h.

`Oc1ccc(-c2nnc(N3CCN(c4ccccn4)CC3)o2)c(O)c1` showed an IC50 [1] of 1340 nM, an IC50 [2] of 3290 nM and an IC50 [3] of 382 nM.

`O=C(N/N=C/c1ccc(OC(F)(F)F)cc1)N1CCN(c2ccccn2)CC1` showed an IC50 [1] of 2910 nM, an IC50 [2] of 4350 nM and an IC50 [3] of 248 nM.

`O=C(N/N=C/c1ccccc1O)N1CCN(c2ccccn2)CC1` showed an IC50 [1] of over 10000 nM, an IC50 [2] of over 10000 nM and an IC50 [3] of 5880 nM.

`O=C(N/N=C/c1ccc(F)cc1F)N1CCN(c2ccccn2)CC1` showed a Papp at 18 h, 25 ug/ml [4] of 4.1 ×10⁻⁶ cm/s, an IC50 [1] of 682 nM and an IC50 [2] of 3970 nM. For the same molecule, the IC50 [3] was 446 nM.

For `Cc1cccc(/C=N/NC(=O)N2CCN(c3ccccn3)CC2)c1`, the IC50 [1] was over 10000 nM, the IC50 [2] was over 10000 nM and the IC50 [3] was 4370 nM.

With `O=C(N/N=C/c1ccc(Br)cc1)N1CCN(c2ccccn2)CC1` the Papp at 18 h, 25 ug/ml [4] was 3.6 ×10⁻⁶ cm/s, the IC50 [1] was 489 nM and the IC50 [2] was 1880 nM. For the same molecule, the IC50 [3] was 296 nM.

Work on `Oc1ccccc1-c1nnc(N2CCN(c3ccccn3)CC2)o1` yielded an IC50 [1] of 1230 nM, an IC50 [2] of 8220 nM and an IC50 [3] of 2230 nM.

Work on `FC(F)(F)Oc1ccc(-c2nnc(N3CCN(c4ccccn4)CC3)o2)cc1` yielded a Papp at 18 h, 25 ug/ml [4] of 6.8 ×10⁻⁶ cm/s, an IC50 [1] of 89 nM and an IC50 [2] of 1960 nM. For the same molecule, the IC50 [3] was 822 nM.

For `COc1cccc(-c2nnc(N3CCN(c4ccccn4)CC3)o2)c1OC`, the IC50 [1] was 1190 nM, the IC50 [2] was 5220 nM and the IC50 [3] was 2160 nM.

Molecule `O=C(N/N=C/c1ccc(Cl)cc1)N1CCN(c2ccccn2)CC1` has an IC50 [1] of 3420 nM, an IC50 [2] of 4820 nM and an IC50 [3] of 2960 nM.
